Patent US9457005B2, “Compositions and methods for increasing insulin sensitivity” (Orexigen Therapeutics, Inc., priority 2005, dated 2016)
“And” between values parts separate entries of the source, which are not always exact repeats. Equal entries are not always repeated.

Columns and labels:
blood glucose levels [1] = experiment: Insulin tolerance test, naltrexone and bupropion, glucose AUC (Example 8); format: in vivo, mice; conditions: naltrexone 3 mg/kg, bupropion 50 mg/kg
Experimental: (§1) A baseline blood glucose determination was made two hours post-injection. Mice were then given a standard I.P. injection of insulin. Blood glucose levels were then followed for two hours (at 15 min, 30 min, 1 h and 2 h). […] Glucose levels are in mg/dl.
Total areas under the curve (AUC) were calculated based on glucose levels at each time point for each mouse. AUC is a summation of glucose levels observed at each time point.

blood glucose levels [2] = experiment: Insulin tolerance test, naltrexone and fluoxetine (Example 7); format: in vivo, Mice; conditions: for Blood glucose, 15 min / Blood glucose, 30 min / Blood glucose, 1 h / Blood glucose, 2 h / Blood glucose, Baseline: individual mice (n=3), I.P. fluoxetine 8.5 mg/kg and/or naltrexone 2.5 mg/kg; for Blood glucose, 15 min: 15 min after I.P. insulin; for Blood glucose, 30 min: 30 min after I.P. insulin; for Blood glucose, 1 h: 1 h after I.P. insulin; for Blood glucose, 2 h: 2 h after I.P. insulin; for Blood glucose, Baseline: baseline two hours post-injection, before I.P. insulin; for Effect on insulin tolerance / insulin resistance (in words): mice, fluoxetine 8.5 mg/kg, naltrexone 2.5 mg/kg I.P., compared with vehicle or either compound alone
Experimental: as §1

blood glucose levels [3] = experiment: Blood glucose after olanzapine minipump and zonisamide injections (Example 9); format: in vivo, Female Sprague-Dawley rats; conditions: rats; olanzapine 1.75 mg/day by minipump, zonisamide 26 mg/kg twice daily; 13 days after olanzapine implant, 6 days after zonisamide injections began; vehicle 92.2
Experimental: Female Sprague-Dawley rats, weighing about 235 grams at the start of the experiment were used. […] The rats were subsequently returned to their home cages after recovery. The minipumps delivered 5 μL per hour for 14 days. […] The animals were housed individually and supplied with standard laboratory chow. Food consumed and animal weights were recorded every day. […] Rats were allowed to recover after pump implantation, and then received twice daily injections of zonisamide 26 mg/kg. […] The results are shown below (Table 5).

SMILES	Blood glucose, 15 min (blood glucose levels [2])	Blood glucose, 30 min (blood glucose levels [2])	Blood glucose, 1 h (blood glucose levels [2])	Blood glucose, 2 h (blood glucose levels [2])	Blood glucose, Baseline (blood glucose levels [2])	Effect on insulin tolerance / insulin resistance (in words) (blood glucose levels [2])	Blood Glucose, Average (blood glucose levels [3]) [mg/dL]	further results
CC(NC(C)(C)C)C(=O)c1cccc(Cl)c1 (centres unmarked) [Bupropion, bupropion]	–	–	–	–	–	–	–	Total area under the curve (AUC) of glucose levels, each mouse (blood glucose levels [1]; individual mice (n=12), summation of glucose levels at each time point): 13613 and 12038 and 9083 and 14003 and 9668 and 8003 and 8715 (2×); Decrease in AUC versus vehicle (blood glucose levels [1]): 4.3%; Mean AUC as % of vehicle AUC (blood glucose levels [1]; vehicle mean=11136.2): 95.7%
O=C1CC[C@@]2(O)[C@H]3Cc4ccc(O)c5c4[C@@]2(CCN3CC2CC2)[C@H]1O5 [naltrexone]	68 mg/dL and 62 mg/dL and 65 mg/dL	84 mg/dL and 82 mg/dL and 81 mg/dL	80 mg/dL and 127 mg/dL	181 mg/dL and 175 mg/dL and 186 mg/dL	137 mg/dL and 111 mg/dL and 134 mg/dL	neither fluoxetine nor naltrexone alone had an effect on insulin tolerance	–	–
Cc1cc2c(s1)Nc1ccccc1N=C2N1CCN(C)CC1 [Olanzapine, olanzapine]	–	–	–	–	–	–	120.4	–
CNCCC(Oc1ccc(C(F)(F)F)cc1)c1ccccc1 (centres unmarked) [fluoxetine]	63 mg/dL and 82 mg/dL and 84 mg/dL	93 mg/dL and 90 mg/dL and 80 mg/dL	118 mg/dL and 138 mg/dL and 89 mg/dL	228 mg/dL and 169 mg/dL and 189 mg/dL	135 mg/dL and 161 mg/dL and 145 mg/dL	neither fluoxetine nor naltrexone alone had an effect on insulin tolerance	–	–
NS(=O)(=O)Cc1noc2ccccc12 [Zonisamide, zonisamide]	–	–	–	–	–	–	117.6	–
